{
  "source": "ChEMBL document CHEMBL5316350",
  "about": "“Novel Pyrido[2',1':2,3]imidazo[4,5-c]quinoline Derivative Selectively Poisons Leishmania donovani Bisubunit Topoisomerase 1 to Inhibit the Antimony-Resistant Leishmania Infection in Vivo” (J Med Chem, 2023)",
  "key": {"[1]": {"tested_on": "Leishmania donovani", "experiment": "Induction of apoptosis in Leishmania donovani Ag83 promastigotes assessed as viable cells measured at 5 uM after 24 hrs by Annexin V-FITC/PI staining based flow cytometric analysis (reference value: 99.4%)", "format": "functional"}, "[2]": {"target": "T1, DNA topoisomerase I (Leishmania donovani (strain BPK282A1), UniProt E9BRC0)", "T1 sequence (E9BRC0 whole entry)": "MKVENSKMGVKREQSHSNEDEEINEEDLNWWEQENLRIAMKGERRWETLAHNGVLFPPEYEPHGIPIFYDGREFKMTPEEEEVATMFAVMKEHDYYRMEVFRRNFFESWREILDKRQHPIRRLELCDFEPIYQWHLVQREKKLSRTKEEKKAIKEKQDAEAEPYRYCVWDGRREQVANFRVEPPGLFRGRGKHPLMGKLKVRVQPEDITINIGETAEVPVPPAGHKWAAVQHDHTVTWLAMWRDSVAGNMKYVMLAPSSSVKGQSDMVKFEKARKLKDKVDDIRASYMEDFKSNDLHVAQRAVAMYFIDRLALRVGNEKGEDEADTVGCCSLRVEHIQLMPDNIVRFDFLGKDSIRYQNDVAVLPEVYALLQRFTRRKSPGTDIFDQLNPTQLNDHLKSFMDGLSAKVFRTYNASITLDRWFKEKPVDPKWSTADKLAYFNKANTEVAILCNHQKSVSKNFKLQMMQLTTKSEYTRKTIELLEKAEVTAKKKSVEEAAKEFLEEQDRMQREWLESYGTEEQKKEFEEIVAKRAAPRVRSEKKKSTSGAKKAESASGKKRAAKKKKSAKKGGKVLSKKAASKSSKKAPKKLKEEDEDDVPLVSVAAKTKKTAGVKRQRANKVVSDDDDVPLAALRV", "experiment": "(§1) Inhibition of recombinant Top1 in Antimony resistant Leishmania donovani BHU575 whole cell extract assessed as relaxation of supercoiled pBluescript SK(+) DNA measured by agarose gel electrophoresis analysis"}, "[3]": {"target": "T2, DNA topoisomerase I (Leishmania donovani (strain BPK282A1)) (UniProt E9BRC0)", "T2 sequence (whole entry)": "T1 sequence (E9BRC0 whole entry)", "experiment": "as §1", "conditions": "dose 5-50 µM"}, "[4]": {"tested_on": "Leishmania donovani", "experiment": "Induction of cell cycle arrest in Leishmania donovani Ag83 promastigotes assessed as decrease in accumulation of cells in G2/M phase at 5 uM measured after 24 hrs by PI staining based flow cytometry (reference value: 15.1 %)", "format": "functional", "design": "scale not given: the % may be the effect or the level left"}, "[5]": {"tested_on": "Leishmania donovani", "experiment": "Reversal of Top1cc-induced DNA breakdown in Leishmania donovani Ag83 promastigotes by measuring TUNEL positive cells treated for 6 to 12 hrs followed by compound removal measured after 6 to 12 hrs by confocal microscopic analysis relative to camptothecin", "format": "functional, organism-based", "conditions": "time 6-12 hrs"}, "[6]": {"target": "T2, DNA topoisomerase I (Leishmania donovani (strain BPK282A1))", "experiment": "Potency index, ratio of Camptothecin IC50 to compound IC50 for inhibition of Leishmania donovani Top1 assessed as relaxation of supercoiled pBluescript SK(+) DNA measured by agarose gel electrophoresis analysis"}, "[7]": {"tested_on": "Leishmania donovani", "experiment": "Induction of apoptosis in Leishmania donovani BHU575 promastigotes assessed as DNA break accumulation measured at 5 uM after 6 to 24 hrs by TUNEL staining based assay", "format": "functional, organism-based", "conditions": "time 6-24 hrs"}, "[8]": {"experiment": "Cytotoxicity against BALB/c mouse macrophage assessed as cell viability measured after 48 hrs infection by propidium iodide staining analysis relative to control", "format": "toxicity, cell-based", "conditions": "mouse macrophages"}, "[9]": {"target": "T2, DNA topoisomerase I (Leishmania donovani (strain BPK282A1))", "experiment": "Binding affinity to Leishmania donovani recombinant topoisomerase I assessed as stabilization of cleavage complex at 2.5 to 25 uM measured after 30 mins", "conditions": "dose 2.5-25 µM"}, "[10]": {"tested_on": "Leishmania donovani", "experiment": "Induction of apoptosis in Leishmania donovani Ag83 promastigotes assessed as early apoptotic cells measured at 5 uM after 24 hrs by Annexin V-FITC/PI staining based flow cytometric analysis (reference value: 0.00%)", "format": "functional"}},
  "note": "pIC50: −log10 of the molar value. The source made the active and inactive calls. The calls are words filed in the database; no cut-off is given here.",
  "data": [
    {"compound": "COc1cc(-c2nc3ccccc3c3nc4ccccn4c23)cc(OC)c1OC", "values": [
      {"measurement": "Activity", "setting": "[1]", "result": 1.4, "unit": "%"},
      {"measurement": "pIC50", "setting": "[2]", "result": 5.06},
      {"measurement": "inhibition", "setting": "[3]", "result": "Dose-Dependent Effect"},
      {"measurement": "Activity", "setting": "[4]", "result": 34.2, "unit": "%"},
      {"measurement": "Activity", "setting": "[5]", "result": "inactive"},
      {"measurement": "Ratio IC50", "setting": "[6]", "result": 2.5},
      {"measurement": "Activity", "setting": "[7]", "result": "Active"},
      {"measurement": "EC50 at 48 h", "setting": "[8]", "result": 50.2, "unit": "µM"},
      {"measurement": "Activity", "setting": "[9]", "result": "Active"},
      {"measurement": "Activity", "setting": "[10]", "result": 4.9, "unit": "%"}
    ]}
  ]
}
